Measured values published in US12622917B2, “High-activity Wnt pathway inhibitor compound” (ADLAI NORTYE BIOPHARMA CO., LTD., priority 2020, dated 2026).

Legend:
Colo205 = assay: Proliferation inhibition, Wnt mutant cell line Colo205; assay type: cell-based; conditions: Homo sapiens, COLO 205; Colo205, Wnt pathway-dependent, 96 hours; read-out: Antiproliferative IC50 Colo205
How it was run: (§1)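 Log-phase cells are plated (1000 per well) and allowed to settle for 20-24 h at 37° C. Compound is added in 3-fold steps, highest final concentration 20 uM, and growth continues for 96 hours before a Promega viability measurement, from which the IC50 is obtained.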

DU4475 = assay: Proliferation inhibition, Wnt mutant cell line DU4475; assay type: cell-based; conditions: Homo sapiens, DU-4475; DU4475, Wnt pathway-dependent, 96 hours; read-out: Antiproliferative IC50 DU4475
From the text: The cell lines used in the experiment are Colo205 and DU4475 cell lines whose Wnt pathway is continuously activated and whose proliferation is Wnt pathway-dependent; while the BELA and RKO cell lines, whose Wnt pathway is not activated under normal circumstances and the proliferation is independent of Wnt pathway, as control cell lines. It is Judged that the inhibitory effect of the compound of the present invention on Wnt-dependent proliferation is not caused by other non-specific toxicity.
Treat the Colo205, Du4475, HELA and RKO cell lines cultured in their respective mediums in the logarithmic growth phase, collect the cells and prepare a uniform cell suspension of known concentration, and then add it to the 96-well cell culture plate Cell suspension, so that each well contains 1000 cells. Put it into a 5% CO2 incubator and incubate at 37° C. for 20-24 h. On the second day, the fully dissolved, 3-fold serially diluted compound was added to each cell culture well, so that the final maximum concentration in the cell culture well was 20 uM, and the culture was continued for 96 hours. In this test, Promega's cell viability detection test is used for detection. The more the cells proliferate, the stronger the final signal intensity will be. The detection instrument is SpectraMax, full wavelength mode. The wells only added with DMSO were used as positive control wells, and the wells that were not inoculated with cells were used as negative control wells. […] The IC50 value of cell proliferation inhibition was used to evaluate the inhibitory effect of the compound on the Wnt pathway and the toxic effect on normal cells (Table 2).

HepG2 = assay: Proliferation inhibition, HepG2 cell line; assay type: cell-based; conditions: Homo sapiens; HepG2 cells, 96 hours culture, cell viability detection; read-out: Antiproliferative IC50 HepG2
From the text: (§2) The cell lines used in the test are NCI-H929 and HepG2 cell lines whose Wnt pathway is continuously activated and whose proliferation is Wnt pathway-dependent; the inhibitory effect of the compound of the present invention on Wnt-dependent proliferation is judged.
(§3) Treat the NCI-H929 and HepG2 cell lines cultured in their respective mediums in the logarithmic growth phase, collect the cells and prepare a uniform cell suspension of known concentration, and then add the cell suspension to the 96-well cell culture plate solution so that each well contains 4000 cells. Put it into a […] incubator and incubate at 37° C. for 20-24 h. On the second day, the fully dissolved, 3-fold serially diluted compound was added to each cell culture well, so that the final maximum concentration in the cell culture well was 20 uM, and the culture was continued for 96 hours. In this test, Promega's cell viability detection test is used for detection. The more the cells proliferate, the stronger the final signal intensity will be. The detection instrument is SpectraMax, full wavelength mode. The wells only added with DMSO were used as positive control wells, and the wells that were not inoculated with cells were used as negative control wells. […] The IC50 value of cell proliferation inhibition was used to evaluate the inhibitory effect of the compound on the Wnt pathway and the toxic effect on normal cells (Table 3).

[1] = test system: Colo205-LUC-TCF/LEF M1 reporter cell line (Wnt pathway); assay: Colo205-LUC-TCF/LEF M1 reporter gene (luciferase) inhibition; assay type: cell-based; conditions: 4 hours incubation, luciferase readout
How it was run: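 Luminescent readout of TCF/LEF-regulated luciferase after a 4 h, 37° C compound exposure in a stable Colo205 reporter clone (10,000 cells/well). Serial 3-fold dilutions started at 20 uM; IC50 derived using DMSO-treated cells and no-cell wells as controls.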

NCI-H929 = assay: Proliferation inhibition, NCI-H929 cell line; assay type: cell-based, human; conditions: Homo sapiens; NCI-H929 cells, 96 hours culture, cell viability detection; read-out: Antiproliferative IC50 NCI-H929
From the text: as §2, §3

RKO = assay: Proliferation inhibition, non-Wnt mutant control cell line RKO; assay type: cell-based; conditions: Homo sapiens, Wnt-independent control cell line, 96 hours, read-out: Antiproliferative IC50 RKO
How it was run: as §1

IC50 (Colo205) [nM]	IC50 (HepG2) [nM]	IC50 [1] [nM]	IC50 (NCI-H929) [nM]	Structure (SMILES)	IC50 (DU4475) [nM]	IC50 (RKO) [nM]
36	69	30	17	CCN1c2nc(NCc3ccc(Oc4ccc(C(F)(F)F)nc4)nc3)nc3c2N(CCC3)C(=O)[C@@H]1C [116 (W249), (S)-4-ethyl-5-methyl-2-(((6-((6-(trifluoromethyl)pyridin-3-yl)oxo)pyridin-3-yl)methyl)amino)-4,5,9,10-tetrahydro-6H,8H-pyrido[3,2,1-de]pteridin-6-one]	46	> 10000
8.5	16	5	83	CCN1c2nc(NCc3ccc(Oc4ccc(C(F)(F)F)nc4)nc3)nc3c2N(CCC3)C(=O)[C@@H]1C(C)C [118 (W279), (S)-4-ethyl-5-isopropyl-2-(((6-((6-(trifluoromethyl)pyridin-3-yl)oxo)pyridin-3-yl)methyl)amino)-4,5,9,10-tetrahydro-6H,8H-pyrido[3,2,1-de]pteridin-6-one]	6.5	> 10000
7.5	5.4	7	28	CC[C@H]1C(=O)N2CCCc3nc(NCc4ccc(Oc5ccc(C(F)(F)F)nc5)nc4)nc(c32)N1C [119 (W255), (S)-5-ethyl-4-methyl-2-(((6-((6-(trifluoromethyl)pyridin-3-yl)oxo)pyridin-3-yl)methyl)amino)-4,5,9,10-tetrahydro-6H,8H-pyrido[3,2,1-de]pteridin-6-one]	2.3	> 10000
7.8	18	15	55	CN1c2nc(NCc3ccc(Oc4ccc(C(F)(F)F)nc4)nc3)nc3c2N(CCC3)C(=O)[C@@H]1C1CC1 [120 (W265)]	0.5	> 10000
9.1	2.7	10	39	C[C@H](F)[C@H]1C(=O)N2CCCc3nc(NCc4ccc(Oc5ccc(C(F)(F)F)nc5)nc4)nc(c32)N1C [126 (W308), (R)-5-((S)-1-fluoroethyl)-4-methyl-2-(((6-((6-(trifluoromethyl)pyridin-3-yl)oxo)pyridine-3-yl)methyl)amino)-4,5,9,10-tetrahydro-6H,8H-pyrido[3,2,1-de]pteridin-6-one]	< 0.5	> 10000
21	42	20	75	CN1c2nc(NCc3ccc(Oc4ccc(C(F)(F)F)nc4)nc3)nc3c2N(CCC3)C(=O)[C@@H]1c1ccccc1 [127 (W280), (S)-4-methyl-5-phenyl-2-(((6-((6-(trifluoromethyl)pyridin-3-yl)oxo)pyridin-3-yl)methyl)amino)-4,5,9,10-tetrahydro-6H,8H-pyrido[3,2,1-de]pteridin-6-one]	42	> 10000
18.6	27	19	78	C[C@H]1C(=O)N2CCCc3nc(NCc4ccc(Oc5cc(C(F)(F)F)nn5C)nc4)nc(c32)N1C [128 (W263), (S)-4,5-dimethyl-2-(((6-((1-methyl-3-(trifluoromethyl)-1H-pyrazol-5-yl)oxo)pyridine-3-yl)methyl)amino)-4,5,9,10-tetrahydro-6H,8H-pyrido[3,2,1-de]pteridin-6-one]	4.1	> 10000
31	81	34	87	CC[C@H]1C(=O)N2CCCc3nc(NCc4ccc(Cn5ccc(C(F)(F)F)n5)nc4)nc(c32)N1C [146 (W273)]	18	> 10000
15	11	16	41	C[C@@H](F)[C@H]1C(=O)N2CCCc3nc(NCc4ccc(Oc5ccc(C(F)(F)F)nc5)nc4)nc(c32)N1C [149 (W285)]	2.9	> 10000
24	19	25	62	CN1c2nc(NCc3ccc(Oc4cnc(C(F)(F)F)nc4)nc3)nc3c2N(CCC3)C(=O)[C@@H]1CF [150 (W301)]	12	> 10000
11	9.8	50	26	CN1c2nc(NCc3ccc(Oc4cnc(C(F)(F)F)nc4)nc3)nc3c2N(CCC3)C(=O)[C@@H]1C(C)(C)F [151 (W332)]	13	> 10000
21	19	15	37	CCN1c2nc(NCc3ccc(Oc4cc(C(F)(F)F)nn4C)nc3)nc3c2N(CCC3)C(=O)[C@@H]1C [153 (W293)]	3.9	> 10000
4.6	16	9	22	CC[C@H]1C(=O)N2CCCc3nc(NCc4ccc(Oc5cnc(C(F)(F)F)nc5)nc4)nc(c32)N1C [161 (W269)]	< 0.5	> 10000
4.9	16	11	22	[2H]C([2H])([2H])N1c2nc(NCc3ccc(Oc4cnc(C(F)(F)F)nc4)nc3)nc3c2N(CCC3)C(=O)[C@@H]1CC [162 (W270)]	< 0.5	> 10000
5	7	16	31	[2H]C([2H])([2H])N1c2nc(NCc3ccc(Oc4ccc(C(F)(F)F)nc4)nc3)nc3c2N(CCC3)C(=O)[C@@H]1CC(F)F [163 (W325)]	4.7	> 10000
5	7.5	26	26	[2H]C([2H])([2H])N1c2nc(NCc3ccc(Oc4cnc(C(F)(F)F)nc4)nc3)nc3c2N(CCC3)C(=O)[C@@H]1CC(F)F [164 (W326)]	5	> 10000
12	11	14	31	[2H]C([2H])([2H])N1c2nc(NCc3ccc(Oc4cnc(C(F)(F)F)nc4)nc3)nc3c2N(CCC3)C(=O)[C@@H]1C1CC1 [165 (W286)]	0.6	> 10000
16	21	23	31	CCN1c2nc(NCc3ccc(Oc4cnc(C(F)(F)F)nc4)nc3)nc3c2N(CCC3)C(=O)[C@@H]1C1CC1 [166 (W287)]	4.8	4820
9.3	8.2	21	95	CN1c2nc(NCc3ccc(Oc4cc(C(F)(F)F)nn4C4CC4)nc3)nc3c2N(CCC3)C(=O)[C@]1(C)CO [203 (W372)]	–	> 10000
9.6	12	25	60	CCn1nc(C(F)(F)F)cc1Oc1ccc(CNc2nc3c4c(n2)N(C)[C@@](C)(CO)C(=O)N4CCC3)cn1 [204 (W374)]	–	> 10000
14.8	5.6	37	67	CN1c2nc(NCc3ccc(Oc4cc(C(F)(F)F)nn4C4CC4)nc3)nc3c2N(CCC3)C(=O)[C@@H]1CO [205 (W379)]	–	> 10000
10	49	24	90	C[C@@H](O)[C@H]1C(=O)N2CCCc3nc(NCc4ccc(Oc5cc(C(F)(F)F)nn5C5CC5)nc4)nc(c32)N1C [206 (W388)]	–	> 10000
